BindingDB's records for doi:10.1016/j.bmcl.2006.08.117 (Johnson & Johnson Pharmaceutical, 2006)

Biological target: Histamine H4 receptor (Homo sapiens, UniProt Q9H3N8)
Experiment: Radioligand Binding Assay
Conditions: pH 7.5; 25 °C
Procedure: The Ki values were calculated based on an experimentally determined appropriate Kd value according to Cheng and Prusoff.

Ki: 124 nM
SMILES: CN1CCN(CCCOc2ccc(-c3nc4cc(Cl)ccc4[nH]3)cc2)CC1 [5-chloro-2-{4-[3-(4-methylpiperazin-1-yl)propoxy]phenyl}-1H-1,3-benzodiazole]
